Data: patent US4031219A, “Bis-homophthalimides and salts thereof” (Boehringer Ingelheim GmbH, priority 1975, dated 1977)
Converted amounts (≈) assume the structure as drawn. Where two headings read alike, the source gives them in different places.

How the values were obtained:
[1] = system: isolated electrically stimulated left auricle of the guinea pig; assay: Effect on the effective refractory period of the isolated electrically stimulated left auricle of the guinea pig (maximum driving frequency); settings: Cavia porcellus, Tyrode solution 37° C, mean change 5 and 10 minutes after addition, graphically determined from dose-response-curves, read-out: EC50 (concentration which reduces the maximum driving frequency by 50%)
Method: 1. Effect on the effective refractory period of the isolated electrically stimulated left auricle of the guinea pig
Guinea pigs of both sexes were killed by a blow on the neck. After opening the thorax, the heart was quickly removed and transferred to a Tyrode solution (37° C). The auricles were therein dissected, and only the left auricles were used. Electrical stimulation was performed by a Grass Stimulator, S4G, with square wave impulses of 1 millisecond duration and a stimulation voltage of 12 V. The auricles were suspended in Tyrode solution at 37° C containing NaCl: 136.8 mval/liter; KCl: 2.68 mval/liter; MgCl2 : 0.2625 mval/liter; NaH2 PO4 : 0.417 mval/liter; NaHCO3 : 11.9 mval/liter; CaCl2 : 1.8 mval/liter; glucose: 3 gm. The solution was continuously oxygenated with 98% O2 and 2% CO2. The isometric contractions were measured with a force-displacement transducer and recorded on a Grass-polygraph (P5).
The auricles were stimulated with 0.5 Hz. The maximum driving frequency was measured by increasing the stimulation rate every 10 seconds by 1 Hz. Measurements were performed three times every 5 minutes before and 5 and 10 minutes after the addition of the test compound. During the rest periods between the measurements the stimulation frequency was 0.5 Hz.
The effect of the compound was calculated as the mean change of maximum driving frequency 5 and 10 minutes after adding the compound. The compound was tested by increasing the concentration to obtain dose-response-curves and to calculate the EC50.
The maximum driving frequency is measured by increasing the stimulation rate. When the interval between two stimuli is shortened, a stimulation rate is reached at which every second stimulation falls into the refractory period of the foregoing contraction and will not be answered with a contraction. Thus, the maximum driving frequency is a measure for the effective refractory period. Compounds which reduce the maximum driving frequency prolong the refractory period.
From the dose-response-curves the following concentrations, which reduce the maximum driving frequency by 50%, were graphically determined: […]

[2] = system: chloroform-induced ventricular fibrillation in mice; assay: Antiarrhythmic activity against chloroform-induced ventricular fibrillation in mice; assay type: in vivo; settings: Mus musculus, iv, 1 minute before inducing ventricular fibrillation; male mice 20-25 gm; read-out: ED50 (dose which reduces the number of animals which show fibrillations by 50%)
Method: 2. Antiarrhythmic activity against chloroform-induced ventricular fibrillation in mice
Upon putting a mouse into a chloroform-saturated atmosphere, the animal is anaesthetized after 40 seconds, the spontaneous respiration stops, and after 20 seconds more, gasping respiration is seen.
During 1 minute after opening the thorax spontaneous ventricular fibrillation can be obtained in nearly all the animals or can be induced in others by touching the heart with tweezers.
Pretreatment with antiarrhythmic compounds reduces the number of animals which show fibrillations in a dose-dependent way. The dose which reduces the number of animals by 50% (ED50) is calculated by means of dose-response-curves, and the standard error is determined [Miller, L.C. and Tainter, M.L., Proc. Soc. Exp. Biol. Med. 57, 261 (1944)].
The tests were performed on male mice having a body weight of 20-25 gm. Each dose was tested on 10 animals.
The compounds were administered intravenously 1 minute before inducing ventricular fibrillation.

[3] = Acute toxicity in mice; settings: mouse, in vivo, observation time: 14 days
Method: The acute toxicity of the test compounds was determined in mice (observation time: 14 days) after oral and/or intravenous application. The LD50 was calculated from the percentage of animals which died within the observation time after administration of various doses [see J. Pharmacol. exp. Therap. 96, 99 (1949)].

[4] = intravenous, read-out: LD50 i.v.

| EC50 [1] [µg/mL] | SMILES | ED50 [2] [mg/kg] | LD50 at 336 h [3, 4] [mg/kg] | LD50 at 336 h ([3]; oral, read-out: LD50 p.o.) [mg/kg] |
| --- | --- | --- | --- | --- |
| 2 (≈ 3.97 µM) | CCN(CCCN1C(=O)c2ccccc2C(C)(C)C1=O)CCCN1C(=O)c2ccccc2C(C)(C)C1=O [C, n,n-bis-[3-(3,4-dihydro-4,4-dimethyl-1,3-dioxo-2(1H)-isoquinolyl)-propyl]-ethylamine] | 0.5 | – | – |
| 10 (≈ 20.4 µM) | CC1(C)C(=O)N(CCCCNCCCN2C(=O)c3ccccc3C(C)(C)C2=O)C(=O)c2ccccc21 [H, [3-(3,4-dihydro-4,4-dimethyl-1,3-dioxo-2(1H)-isoquinolyl)-propyl]-[4-(3,4-dihydro-4,4-dimethyl-1,3-dioxo-2(1H)-isoquinolyl)-butyl]-amine] | 3 | – | – |
| – | CN(CCN1C(=O)c2ccccc2C(C)(C)C1=O)CCN1C(=O)c2ccccc2C(C)(C)C1=O [F, n,n-bis-[2-(3,4-dihydro-4,4-dimethyl-1,3-dioxo-2(1H)-isoquinolyl)-ethyl]-methylamine] | 4.6 | – | – |
| 4.2 (≈ 8.31 µM) | COc1ccc2c(c1)C(=O)N(CCN(C)CCCN1C(=O)c3ccccc3C(C)(C)C1=O)C(=O)C2(C)C [D, n-[2-(3,4-dihydro-7-methoxy-4,4-dimethyl-1,3-dioxo-2-(1H)-isoquinolyl)-ethyl]-N-[3-(3,4-dihydro-4,4-dimethyl-1,3-dioxo-2(1H)-isoquinolyl)-propyl]-methylamine] | 3.6 | – | – |
| 2.7 (≈ 5.85 µM) | CC1(C)C(=O)N(CCCNCCN2C(=O)c3ccccc3C(C)(C)C2=O)C(=O)c2ccccc21 [G, n-[2-(3,4-dihydro-4,4-dimethyl-1,3-dioxo-2(1H)-isoquinolyl)-ethyl]-N-[3-(3,4-dihydro-4,4-dimethyl-1,3-dioxo-2(1H)-isoquinolyl)-propyl]-amine] | 4.7 | – | – |
| 5.5 (≈ 11.2 µM) | CN(CCCN1C(=O)c2ccccc2C(C)(C)C1=O)CCCN1C(=O)c2ccccc2C(C)(C)C1=O [A, n,n-bis-[3-(3,4-dihydro-4,4-dimethyl-1,3-dioxo-2-(1H)-isoquinolyl)-propyl]-methylamine] | 1.2 | – | – |

| SMILES | EC50 [1] [µg/mL] | ED50 [2] [mg/kg] | LD50 at 336 h [3, 4] [mg/kg] | LD50 at 336 h ([3]; oral, read-out: LD50 p.o.) [mg/kg] |
| --- | --- | --- | --- | --- |
| CC1(C)C(=O)N(CCCCNCCN2C(=O)c3ccccc3C(C)(C)C2=O)C(=O)c2ccccc21 [J, [2-(3,4-dihydro-4,4-dimethyl-1,3-dioxo-2(1H)-isoquinolyl)-ethyl]-[4-(3,4-dihydro-4,4-dimethyl-1,3-dioxo-2(1H)-isoquinolyl)-butyl]-amine] | 1.8 (≈ 3.78 µM) | 2.8 | 10.5 | 210 |
| CC1(C)C(=O)N(CCCNCCCN2C(=O)c3ccccc3C(C)(C)C2=O)C(=O)c2ccccc21 [B, N,N-bis-[3-(3,4-dihydro-4,4-dimethyl-1,3-dioxo-2(1H)-isoquinolyl)propyl]-amine] | 8 (≈ 16.8 µM) | 2.5 | – | 123 |
| CC1(C)C(=O)N(CCNCCN2C(=O)c3ccccc3C(C)(C)C2=O)C(=O)c2ccccc21 [I, bis-[2-(3,4-dihydro-4,4-dimethyl-1,3-dioxo-2(1H)-isoquinolyl)-ethyl]-amine] | 2.2 (≈ 4.92 µM) | 4.7 | 15 | 315 |
